Molecular target: T1, renin (Homo sapiens, UniProt P00797)
T1 sequence (P00797 67-406): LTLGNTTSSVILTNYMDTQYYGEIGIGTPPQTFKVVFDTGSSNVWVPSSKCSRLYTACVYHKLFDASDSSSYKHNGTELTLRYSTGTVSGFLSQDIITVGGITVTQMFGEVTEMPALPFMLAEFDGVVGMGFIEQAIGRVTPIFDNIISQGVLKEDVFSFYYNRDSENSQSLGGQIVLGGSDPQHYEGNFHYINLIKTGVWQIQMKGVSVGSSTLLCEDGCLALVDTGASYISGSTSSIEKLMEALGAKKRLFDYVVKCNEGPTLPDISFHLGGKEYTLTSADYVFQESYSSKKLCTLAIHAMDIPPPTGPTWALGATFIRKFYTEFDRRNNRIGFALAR
Test: in vitro renin inhibitory activity, radioimmunoassay for angiotensin I
Format: biochemical
Settings: for IC50: renin incubated two hours at 37° with angiotensinogen, values marked * are IC50, read-out: In Vitro Activity, IC50 (molar concentration causing 50% inhibition of renin activity); for inhibition at 0.01 µM: at 10^-8 molar concentration of test compound, read-out: In Vitro Activity, percent inhibition at 10^-8
Description: The effectiveness of the aforementioned compounds is determined by a test for in vitro renin inhibitory activity. This activity is determined by a standard radioimmunoassay for angiotensin I. In this assay the enzyme, renin, incubated for two hours at 37° in the presence of a substrate, angiotensinogen, generates the product, angiotensin I. Test compounds are added to the incubation mixture. Relative activity is reported as the percent inhibition at the specified molar concentration or as the IC50, which is the molar concentration of test compound causing a 50% inhibition of the renin activity.

Row | IC50 [nM] | Compound | other results
1 | 5.7 | IVA-NHCH-(SCH(CH3)2)CO-HIS-CAD (Isomer B) [IVA-NHCH(SCH(CH3)2)CO--HIS--CAD (Isomer B)] | 
2 | 13 | IVA-NHCH(NHPh)CO-HIS-CAD [IVA-NHCH(NHPh)CO--HIS--CAD] | 
3 | 3000 | IVA-NHCH-(OPh)CO-HIS-CAD [IVA-NHCH(OPh)CO--HIS--CAD] | 
4 | 190 | CC[C@H](C)CNC(=O)C[C@H](O)[C@H](CC(C)C)NC(=O)[C@H](CC(C)C)NC(=O)C(NC(=O)CC(C)C)Sc1ccccc1 (single isomer, unassigned) [IVA-NHCH(SPh)CO--LEU--STA--MBA (Mixture of diastereomers), IVA-NHCH(SPh)-CO-LEU-STA-MBA] | 
5 |  | IVA-NHCH(NHPh)CO-LEU-STA-MBA [IVA-NHCH(NHPh)CO--LEU--STA--MBA] | In Vitro Activity, percent inhibition at 10^-6 (at 10^-6 molar concentration of test compound): 24%
6 | 1.5 | CC(C)CC(=O)NC(Sc1ccccc1)C(=O)N[C@@H](Cc1c[nH]cn1)C(=O)N[C@@H](CC1CCCCC1)[C@@H](O)[C@@H](O)CC(C)C (some centres unmarked) [IVA-NHCH(SPh)CO--HIS--CAD, IVA-NHCH(SPh)CO-HIS-CAD] | 
7 |  | CC[C@H](C)CNC(=O)C[C@H](O)[C@H](CC(C)C)NC(=O)[C@H](CC(C)C)NC(=O)C(NC(=O)OC(C)(C)C)SC(C)C (some centres unmarked) [BOC--NHCH(SCH(CH3)2)CO--LEU--STA--MBA, BOC-NHCH(SCH-(CH3)2)CO-LEU-STA-MBA] | inhibition at 1 µM (at 10^-6 molar concentration of test compound, read-out: In Vitro Activity, percent inhibition at 10^-6): 23%
8 | 3.5 | IVA-NHCH(N(CH3)Ph)CO-HIS-CAD [IVA-NHCH(N(CH3)Ph)CO--HIS--CAD] | 
9 |  | CC(C)CC(=O)NC(SC(C)C)C(=O)N[C@@H](Cc1c[nH]cn1)C(=O)N[C@@H](CC1CCCCC1)[C@@H](O)[C@@H](O)CC(C)C (single isomer, unassigned) [IVA-NHCH(SCH(CH3)2)CO--HIS--CAD (Isomer A), IVA-NHCH(SCH(CH3)2)CO-HIS-CAD (Isomer A)] | inhibition at 0.01 µM: 10.5%
10 |  | CC(C)CC(=O)NC(C(=O)N[C@@H](Cc1c[nH]cn1)C(=O)N[C@@H](CC1CCCCC1)[C@@H](O)[C@@H](O)CC(C)C)S(=O)(=O)C(C)C (some centres unmarked) [IVA-NHCH(SO2 CH(CH3)2)CO--HIS--CAD, IVA-NHCH(SO2 CH(CH3)2)CO-HIS-CAD] | inhibition at 0.01 µM: 8.2%
11 | 140 | CC[C@H](C)CNC(=O)C[C@H](O)[C@H](CC(C)C)NC(=O)[C@H](CC(C)C)NC(=O)C(NC(=O)CC(C)C)Sc1ccccc1 (single isomer, unassigned) [IVA-NHCH(SPh)CO--LEU--STA--MBA (Isomer A), IVA-NHCH(SPh)-CO-LEU-STA-MBA] | 

From patent US5221667A, “Renin inhibiting peptides having an α-heteroatom amino acid at the P3 position” (Warner-Lambert Company, priority 1990, dated 1993)
